From US20060223996A1, “IL-12 modulatory compounds” (Synta Pharmaceuticals Corp., priority 2004, published 2006)

Tested on: IL-12
Experiment: Human in vitro assay: inhibition of IL-12 production in IFNγ/LPS- or IFNγ/SAC-stimulated human PBMC or THP-1 cells (ELISA)
Assay type: cell-based
Details: read-out: IC50 Range (representative in vitro IC50 data)
How it was run: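 Sandwich ELISA for IL-12 (p70, p40) on supernatants collected 18 h after stimulation gave IC50 values; MTS monitored viability. THP-1 cells: IFNγ 100 U/mL priming 22 h, SAC 0.025%. PBMC: IFNγ 30 U/mL for 22 h plus LPS 1 μg/mL, or IFNγ 100 U/mL plus SAC 0.01%. Final DMSO 0.25%.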

IC50 [nM] | Structure (SMILES)
< 1000 | CC(=O)N[C@H]1CCN(c2cc(C(=O)Nc3ccc4[nH]cc(C)c4c3)nc(N3CCOCC3)n2)C1 [Compound 260, (S)-6-(3-acetamidopyrrolidin-1-yl)-N-(3-methyl-1H-indol-5-yl)-2-morpholinopyrimidine-4-carboxamide]
< 1000 | CC(=O)N1CCN(c2cc(C(=O)Nc3ccc4[nH]cc(C)c4c3)nc(N3CCOCC3)n2)CC1 [Compound 261, 6-(4-acetylpiperazin-1-yl)-N-(3-methyl-1H-indol-5-yl)-2-morpholinopyrimidine-4-carboxamide]
< 1000 | CC(=O)N1CCN(c2cc(C(=O)Nc3ccc4[nH]c5c(c4c3)CCCC5)nc(N3CCOCC3)n2)CC1 [Compound 262, 6-(4-acetylpiperazin-1-yl)-2-morpholino-N-(2,3,4,9-tetrahydro-1H-carbazol-6-yl)pyrimidine-4-carboxamide]
< 1000 | Cc1cc(NC(=O)Nc2ccc3[nH]c(C)c(C)c3c2)nc(N2CCOCC2)n1 [Compound 263, 1-(2,3-dimethyl-1H-indol-5-yl)-3-(6-methyl-2-morpholinopyrimidin-4-yl)urea]
< 1000 | CC(=O)N1CCN(c2cc(NC(=O)Nc3ccc4[nH]c(C)c(C)c4c3)nc(N3CCOCC3)n2)CC1 [Compound 264, 1-(6-(4-acetylpiperazin-1-yl)-2-morpholinopyrimidin-4-yl)-3-(2,3-dimethyl-1H-indol-5-yl)urea]
< 1000 | COCCN(C)c1cc(NC(=O)Nc2ccc3[nH]c(C)c(C)c3c2)nc(N2CCOCC2)n1 [Compound 265, 1-(2,3-dimethyl-1H-indol-5-yl)-3-(6-((2-methoxyethyl)(methyl)amino)-2-morpholinopyrimidin-4-yl)urea]
< 1000 | CCc1c(C)[nH]c2ccc(NC(=O)Nc3cc(N4CCN(C(C)=O)CC4)nc(N4CCOCC4)n3)cc12 [Compound 266, 1-(6-(4-acetylpiperazin-1-yl)-2-morpholinopyrimidin-4-yl)-3-(3-ethyl-2-methyl-1H-indol-5-yl)urea]
< 1000 | CCc1c(C)[nH]c2ccc(NC(=O)Nc3cc(C)nc(N4CCOCC4)n3)cc12 [Compound 267, 1-(3-ethyl-2-methyl-1H-indol-5-yl)-3-(6-methyl-2-morpholinopyrimidin-4-yl)urea]
< 1000 | Cc1[nH]c2ccc(NC(=O)Nc3cc(N4CCN(c5ccccn5)CC4)nc(N4CCOCC4)n3)cc2c1C [Compound 268, 1-(2,3-dimethyl-1H-indol-5-yl)-3-(2-morpholino-6-(4-(pyridin-2-yl)piperazin-1-yl)pyrimidin-4-yl)urea]
< 1000 | CCc1c(C)[nH]c2ccc(NC(=O)Nc3cc(N4CCN(c5ccccn5)CC4)nc(N4CCOCC4)n3)cc12 [Compound 269, 1-(3-ethyl-2-methyl-1H-indol-5-yl)-3-(2-morpholino-6-(4-(pyridin-2-yl)piperazin-1-yl)pyrimidin-4-yl)urea]
< 1000 | CCc1c(C)[nH]c2ccc(NC(=O)Nc3cc(NCCN4CCOCC4)nc(N4CCOCC4)n3)cc12 [Compound 270, 1-(3-ethyl-2-methyl-1H-indol-5-yl)-3-(2-morpholino-6-(2-morpholinoethylamino)pyrimidin-4-yl)urea]
< 1000 | Cc1ccc([N+](=O)[O-])c(NC(=O)c2cc(OCCN3CCOCC3)nc(N3CCOCC3)n2)c1 [Compound 271, 2-Morpholin-4-yl-6-(2-morpholin-4-yl-ethoxy)-pyrimidine-4-carboxylic acid (5-methyl-2-nitro-phenyl)-amide]
≥ 1000 | Cc1ccc(N)c(NC(=O)c2cc(OCCN3CCOCC3)nc(N3CCOCC3)n2)c1 [Compound 272, 2-Morpholin-4-yl-6-(2-morpholin-4-yl-ethoxy)-pyrimidine-4-carboxylic acid (2-amino-5-methyl-phenyl)-amide]
≥ 1000 | CN1C(=O)c2ccc(NC(=O)c3cc(OCCN4CCOCC4)nc(N4CCOCC4)n3)cc2C1=O [Compound 274, 2-Morpholin-4-yl-6-(2-morpholin-4-yl-ethoxy)-pyrimidine-4-carboxylic acid (2-methyl-1,3-dioxo-2,3-dihydro-1H-isoindol-5-yl)-amide]
